Experimental data as given in patent US11117918B2, “Enzyme-directed immunostimulant and uses thereof” (Washington State University, priority 2016, dated 2021).

System: RAW-Blue cells
Test: Inverse RAW-Blue assay after conversion by α-Mannosidase or AT3B-1 cells
Assay type: cell-based
Description: α-Mannosidase from Canavalia ensiformis (Jack bean) was used directly from the bottle to make a 1 U/mL stock solution in DPBS. Before administering the enzyme, the solution was filtered through a sterile 0.2 μm syringe filter to yield the working stock solution. 20 μL of the working stock solution was added to wells requiring exogenous enzyme to achieve a 0.1 U/mL α-Mannosidase concentration.
For inverse RAW-Blue assays, pro-immunostimulant (12) was first converted to Imiquimod by either exogenous α-Mannosidase (0.1 U/well) or via AT3B-1 cell metabolism prior to RAW-Blue exposure. To accomplish this, pro-immunostimulant (12) and controls were dosed at a concentration 10× the desired concentration to be administered to immune cells. For instance, to investigate the effects on RAW-Blue stimulation of a 10 μM dose of pro-immunostimulant […] the following steps would be taken: First, in an optically clear bottomed 96-well plate, wells were prepared to contain 180 μL of complete AT3B-1 cell media (without doxorubicin) and either α-Mannosidase or the desired AT3B-1 cell density (cells were given a minimum of 60 mins to adhere). Second, a 100 μM dose of (12) in DPBS was administered to the wells and total well volumes were adjusted to 200 μL with complete cell media (without doxorubicin). Cells were incubated (37° C., 5% CO2) for 24-72 h. […]

## CC(C)Cn1cnc2c(NC(=O)OCc3ccc(O[C@H]4O[C@H](CO)[C@@H](O)[C@H](O)[C@@H]4O)c([N+](=O)[O-])c3)nc3ccccc3c21 [compound 12]
10 μM, exogenous α-Mannosidase and AT3B-1 driven conversion to Imiquimod
  immunogenicity (RAW-Blue activation): confers immunogenicity
Without a conversion driver
  RAW-Blue activity: abrogated activity
